In patent publication US20250345390A1, “COMBINATION THERAPIES” (Gilead Sciences, Inc., priority 2024, published 2025):

System: HDV
Assay: HBV/HDV co-infected viral spread assay in primary human hepatocytes (PHH)
Type: cell-based, hepatitis D virus (HDV) in primary human hepatocytes
Conditions: primary infection; lonafarnib 5 μM to 6.9 nM for 9 days; BLV 0.8 nM where present
Description: Cryopreserved PHH were thawed and cells were recovered by centrifugation at 100×g (Beckman Coulter, Allegra X-14R) through cryopreserved hepatocyte recovery medium (Thermo Fisher Scientific; CM7500) and plated in collagen coated 96-well plates (Thermo Fisher Scientific; CM1096) at a density of 70,000 live cells per well. Cells were plated in William's E medium (Thermo Fisher Scientific; A1217601) supplemented with 3.6% hepatocyte thawing and plating supplement (Thermo Fisher Scientific, A15563), 5% fetal bovine serum (Thermo Fisher Scientific; 16000-036), 1 μM dexamethasone (Thermo Fisher Scientific, A15563), and 0.2% Torpedo antibiotic mix (BioreclamationIVT; Z990008). […]
Vehicle and compound containing wells were normalized such that the final concentration of DMSO was 1.5% (v/v). The medium was collected and extracellular HBsAg was measured by an electrochemiluminescence assay (MSD) according to the manufacturer's instructions (Meso Scale Diagnostics, Rockville, MD). […] Levels of HDV RNA were calculated as fold change relative to DMSO treated sample using the 2-ΔΔCt method (Livak K J, Schmittgen T D. Analysis of relative gene expression data using real-time quantitative PCR and the 2(-Delta Delta C(T)) Method. Methods 2001).

`NC(=O)N1CCC(CC(=O)N2CCC([C@H]3c4ncc(Br)cc4CCc4cc(Cl)cc(Br)c43)CC2)CC1` [lonafarnib, (R)-4-(2-(4-(3,10-dibromo-8-chloro-6,11-dihydro-5H-benzo[5,6]cyclohepta[1,2-b]pyridin-11-yl)piperidin-1-yl)-2-oxoethyl)piperidine-1-carboxamide] was tested, and the “intracellular HDV RNA (qRT-PCR, fold change relative to DMSO)” value was “induced dose-dependent intracellular accumulation of HDV RNA”.
